Source: patent US10174009B2, “Tricyclic sulphonamide compounds and methods of making and using same” (Zafgen, Inc., priority 2012, dated 2019)

These compounds were tested against T1, recombinant human MetAP2 (Homo sapiens, UniProt P50579) (assay: Inhibition of recombinant human MetAP2 activity (MAS substrate, amino acid oxidase/Amplex red fluorescence)). Settings: manganese enzyme, 30 minutes at 25° C., pH 7.5, 0.75 mM MAS substrate, 1% DMSO.
T1 construct: made in house; host or cells: Sf9 insect cells
T1 sequence (P50579 whole entry): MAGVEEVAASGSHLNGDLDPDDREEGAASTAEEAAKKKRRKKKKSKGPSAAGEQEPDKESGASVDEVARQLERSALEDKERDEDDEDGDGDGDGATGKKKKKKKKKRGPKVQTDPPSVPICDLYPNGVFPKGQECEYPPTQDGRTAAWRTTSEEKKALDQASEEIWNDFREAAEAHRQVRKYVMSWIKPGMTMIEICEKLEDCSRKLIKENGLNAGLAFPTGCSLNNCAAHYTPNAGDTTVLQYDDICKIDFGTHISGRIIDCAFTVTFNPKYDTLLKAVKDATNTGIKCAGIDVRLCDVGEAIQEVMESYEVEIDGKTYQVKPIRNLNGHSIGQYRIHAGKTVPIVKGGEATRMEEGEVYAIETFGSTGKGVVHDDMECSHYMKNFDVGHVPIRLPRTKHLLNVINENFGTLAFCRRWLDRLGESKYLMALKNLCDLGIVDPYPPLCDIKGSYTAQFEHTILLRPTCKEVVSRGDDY
Assay type: biochemical
Experimental: Compounds are tested for their capacity to inhibit recombinant human MetAP2 activity using the following assay.
Human recombinant MetAP2 expressed in Sf9 cells followed by affinity purification and EDTA treatment to remove endogenous active site cation was dialysed against MnCl2 to produce the manganese enzyme used in the assay. The assay was carried out for 30 minutes at 25° C. in 50 mM HEPES buffer containing 100 mM NaCl, pH 7.5 the presence of 0.75 mM Methionine-Alanine-Serine (MAS) substrate and 50 μg/ml amino acid oxidase using a dilution of purified MetAP2 giving >3-fold signal:noise. Cleavage of the substrate by MetAP2 and oxidation of free methionine by amino acid oxidase was detected and quantified using fluorescence generated by Amplex red (10-acetyl-3,7-dihydroxyphenoxazine) in combination with horseradish peroxidase which detects H2O2 released during the oxidation step. The fluorescent signal was detected using a multiwell fluorimeter. Compounds were diluted in DMSO prior to addition to assay buffer, the final DMSO concentration in the assay being 1%.
The IC50 is defined as the concentration at which a given compound achieves 50% inhibition of control. IC50 values are calculated using the XLfit software package (version 2.0.5).

IC50 [µM]	Compound
> 0.05	CCN(CC)CCCc1cc(F)ccc1S(=O)(=O)Nc1cc(F)c2c(c1C(=O)O)OCC1CC21 (racemic) [(1aRS,7bSR)-5-[2-(3-Diethylaminopropyl)-4-fluorobenzenesulfonylamino]-7-fluoro-1,1a,2,7b-tetrahydrocyclopropa[c]chromene-4-carboxylic acid]
> 0.05	CCN(CC)C/C=C\c1cc(F)ccc1S(=O)(=O)Nc1c(F)cc2c(c1C(=O)O)OCC1CC21 (racemic) [(1aRS,7bSR)-5-[2-((Z)-3-Diethylaminoprop-1-enyl)-4-fluorobenzene-sulfonylamino]-6-fluoro-1,1a,2,7b-tetrahydrocyclopropa[c]chromene-4-carboxylic acid]
< 0.05	CCN(CC)C/C=C\c1cc(F)ccc1S(=O)(=O)Nc1cc(F)c2c(c1C(=O)O)OCC1CC21 (racemic) [(1aRS,7bSR)-5-[2-((Z)-3-Diethylaminoprop-1-enyl)-4-fluorobenzenesulfonyl-amino]-7-fluoro-1,1a,2,7b-tetrahydrocyclopropa[c]chromene-4-carboxylic acid]
< 0.05	CCN1CC[C@@H](Cc2cc(F)ccc2S(=O)(=O)Nc2cc(F)c3c(c2C(=O)O)OCC2CC32)C1 (mixture of isomers) [(1aRS,7bSR)-5-[2-((R)-1-Ethylpyrrolidin-3-ylmethyl)-4-fluorobenzene-sulfonylamino]-7-fluoro-1,1a,2,7b-tetrahydrocyclopropa[c]chromene-4-carboxylic acid]
